From patent US12076313B2 (CELISTA PHARMACEUTICALS LLC, priority 2020, dated 2024)

Assay: Rat topical application study: effectiveness at low dose and topical absorption
Format: in vivo
Details: rats, topical, 20 μg/100 μL
Method: A study was performed in rats with formulations A and B, and a control formulation. Formulation A was IMQ+penetration enhancer (P.E.) at 20 μg/100 μL. […] The Control formulation was IMQ at 20 μg/100 μL in ethanol.

CC(C)Cn1cnc2c(N)nc3ccccc3c21 [Imiquimod, 1-(2-methylpropyl)-1H-imidazo[4,5-c]quinolin-4-amine]
effectiveness at a low dose: effective
